Legend:
[1] = tested on: Tyrosine-protein kinase ABL1 (Homo sapiens), P00519 [M351T]; details: Compound concentration 1000.0 nM
[2] = molecular target: Tyrosine-protein kinase ABL1 (Homo sapiens) (UniProt P00519); details: Compound concentration 1000.0 nM
[3] = molecular target: Tyrosine-protein kinase ABL2 (Homo sapiens) (UniProt P42684); details: Compound concentration 1000.0 nM
[4] = molecular target: 5'-AMP-activated protein kinase catalytic subunit alpha-1 (Homo sapiens) (UniProt Q13131); details: Compound concentration 1000.0 nM
[5] = molecular target: Aurora kinase B (Homo sapiens) (UniProt Q96GD4); details: Compound concentration 1000.0 nM
[6] = molecular target: Protein-tyrosine kinase 6 (Homo sapiens) (UniProt Q13882); details: Compound concentration 1000.0 nM
[7] = molecular target: Cyclin-dependent kinase 5 (Homo sapiens) (UniProt Q00535); details: Compound concentration 1000.0 nM
[8] = molecular target: Dual specificity protein kinase CLK1 (Homo sapiens) (UniProt P49759); details: Compound concentration 1000.0 nM
[9] = molecular target: Macrophage colony-stimulating factor 1 receptor (Homo sapiens) (UniProt P07333); details: Compound concentration 1000.0 nM
[10] = molecular target: Macrophage colony-stimulating factor 1 receptor (Homo sapiens) (UniProt P07333); details: Compound concentration 1000.0 nM; remark: listed apart in the source
[11] = molecular target: Serine/threonine-protein kinase DCLK3 (Homo sapiens) (UniProt Q9C098); details: Compound concentration 1000.0 nM
[12] = tested on: Epidermal growth factor receptor (Homo sapiens), P00533 [G719C]; details: Compound concentration 1000.0 nM
[13] = molecular target: Receptor tyrosine-protein kinase erbB-2 (Homo sapiens) (UniProt P04626); details: Compound concentration 1000.0 nM
[14] = molecular target: Interleukin-1 receptor-associated kinase 3 (Homo sapiens) (UniProt Q9Y616); details: Compound concentration 1000.0 nM
[15] = molecular target: Interleukin-1 receptor-associated kinase 4 (Homo sapiens) (UniProt Q9NWZ3); details: Compound concentration 1000.0 nM
[16] = molecular target: Mitogen-activated protein kinase 8 (Homo sapiens) (UniProt P45983); details: Compound concentration 1000.0 nM
[17] = molecular target: Mast/stem cell growth factor receptor Kit (Homo sapiens) (UniProt P10721); details: Compound concentration 1000.0 nM
[18] = molecular target: Mitogen-activated protein kinase kinase kinase 1 (Homo sapiens) (UniProt Q13233); details: Compound concentration 1000.0 nM
[19] = molecular target: Mitogen-activated protein kinase kinase kinase kinase 4 (Homo sapiens) (UniProt O95819); details: Compound concentration 1000.0 nM
[20] = molecular target: Dual specificity mitogen-activated protein kinase kinase 7 (Homo sapiens) (UniProt O14733); details: Compound concentration 1000.0 nM
[21] = molecular target: Mitogen-activated protein kinase 14 (Homo sapiens) (UniProt Q16539); details: Compound concentration 1000.0 nM
[22] = molecular target: Cyclin-dependent kinase 2 homolog (Plasmodium falciparum (isolate 3D7)) (UniProt P61075); details: Compound concentration 1000.0 nM
[23] = molecular target: Phosphorylase b kinase regulatory subunit alpha, liver isoform (Homo sapiens) (UniProt P46019); details: Compound concentration 1000.0 nM
[24] = tested on: Phosphatidylinositol 4,5-bisphosphate 3-kinase catalytic subunit alpha isoform (Homo sapiens), P42336 [E542K]; details: Compound concentration 1000.0 nM
[25] = tested on: Phosphatidylinositol 4,5-bisphosphate 3-kinase catalytic subunit alpha isoform (Homo sapiens), P42336 [M1043I]; details: Compound concentration 1000.0 nM
[26] = tested on: Phosphatidylinositol 4,5-bisphosphate 3-kinase catalytic subunit alpha isoform (Homo sapiens), P42336 [Q546K]; details: Compound concentration 1000.0 nM
[27] = molecular target: Membrane-associated tyrosine- and threonine-specific cdc2-inhibitory kinase (Homo sapiens) (UniProt Q99640); details: Compound concentration 1000.0 nM
[28] = molecular target: Protein kinase C epsilon type (Homo sapiens) (UniProt Q02156); details: Compound concentration 1000.0 nM
[29] = tested on: Proto-oncogene tyrosine-protein kinase receptor Ret (Homo sapiens), P07949 [V804M]; details: Compound concentration 1000.0 nM
[30] = molecular target: Proto-oncogene tyrosine-protein kinase ROS (Homo sapiens) (UniProt P08922); details: Compound concentration 1000.0 nM
[31] = molecular target: Ribosomal protein S6 kinase alpha-1 (Homo sapiens) (UniProt Q15418); details: Compound concentration 1000.0 nM
[32] = molecular target: Ribosomal protein S6 kinase alpha-3 (Homo sapiens) (UniProt P51812); details: Compound concentration 1000.0 nM
[33] = molecular target: Uncharacterized serine/threonine-protein kinase SBK3 (Homo sapiens) (UniProt P0C264); details: Compound concentration 1000.0 nM
[34] = molecular target: Serine/threonine-protein kinase TAO2 (Homo sapiens) (UniProt Q9UL54); details: Compound concentration 1000.0 nM
[35] = molecular target: Serine/threonine-protein kinase TAO3 (Homo sapiens) (UniProt Q9H2K8); details: Compound concentration 1000.0 nM
[36] = molecular target: Non-receptor tyrosine-protein kinase TNK1 (Homo sapiens) (UniProt Q13470); details: Compound concentration 1000.0 nM
[37] = molecular target: Transient receptor potential cation channel subfamily M member 6 (Homo sapiens) (UniProt Q9BX84); details: Compound concentration 1000.0 nM
[38] = molecular target: Non-receptor tyrosine-protein kinase TYK2 (Homo sapiens) (UniProt P29597); details: Compound concentration 1000.0 nM
[39] = molecular target: Serine/threonine-protein kinase 32A (Homo sapiens) (UniProt Q8WU08); details: Compound concentration 1000.0 nM
[40] = molecular target: Serine/threonine-protein kinase 32B (Homo sapiens) (UniProt Q9NY57); details: Compound concentration 1000.0 nM
[41] = molecular target: Mitogen-activated protein kinase kinase kinase 19 (Homo sapiens) (UniProt Q56UN5); details: Compound concentration 1000.0 nM
[42] = molecular target: 5-hydroxytryptamine receptor 2B (Homo sapiens) (UniProt P41595); details: Compound concentration 10.0 uM
[43] = molecular target: 5-hydroxytryptamine receptor 5A (Homo sapiens) (UniProt P47898); details: Compound concentration 10.0 uM
[44] = molecular target: D(1A) dopamine receptor (Homo sapiens) (UniProt P21728); details: Compound concentration 10.0 uM

Chain of Macrophage colony-stimulating factor 1 receptor (Homo sapiens) (P07333 whole entry): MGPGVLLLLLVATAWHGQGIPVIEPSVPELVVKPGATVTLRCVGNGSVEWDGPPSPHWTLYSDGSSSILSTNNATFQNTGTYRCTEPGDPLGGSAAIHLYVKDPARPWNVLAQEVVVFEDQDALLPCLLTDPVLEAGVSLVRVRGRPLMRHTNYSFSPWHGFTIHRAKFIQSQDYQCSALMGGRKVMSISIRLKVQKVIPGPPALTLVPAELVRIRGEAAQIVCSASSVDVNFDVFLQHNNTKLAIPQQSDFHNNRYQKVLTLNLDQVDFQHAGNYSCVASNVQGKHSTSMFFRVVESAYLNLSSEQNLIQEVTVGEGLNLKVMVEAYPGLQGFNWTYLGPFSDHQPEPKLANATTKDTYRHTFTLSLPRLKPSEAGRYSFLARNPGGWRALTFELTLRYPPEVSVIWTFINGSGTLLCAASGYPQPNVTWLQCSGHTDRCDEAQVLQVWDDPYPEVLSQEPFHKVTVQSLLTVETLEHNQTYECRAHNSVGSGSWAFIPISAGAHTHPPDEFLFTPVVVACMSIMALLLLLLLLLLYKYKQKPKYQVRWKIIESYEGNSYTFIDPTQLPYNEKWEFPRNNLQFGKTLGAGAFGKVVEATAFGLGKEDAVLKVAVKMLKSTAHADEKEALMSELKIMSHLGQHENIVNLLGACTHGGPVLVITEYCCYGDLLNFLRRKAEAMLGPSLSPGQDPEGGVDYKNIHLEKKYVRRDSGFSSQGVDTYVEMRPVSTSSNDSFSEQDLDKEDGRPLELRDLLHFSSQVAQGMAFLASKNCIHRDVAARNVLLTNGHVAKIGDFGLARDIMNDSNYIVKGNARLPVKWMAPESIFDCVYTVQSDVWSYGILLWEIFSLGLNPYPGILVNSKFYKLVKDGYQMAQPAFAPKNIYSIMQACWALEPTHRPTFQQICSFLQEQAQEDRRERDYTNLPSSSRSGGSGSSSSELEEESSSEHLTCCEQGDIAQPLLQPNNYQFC
Chain of Phosphatidylinositol 4,5-bisphosphate 3-kinase catalytic subunit alpha isoform (Homo sapiens), P42336 [E542K] (P42336 whole entry E542K, canonical isoform): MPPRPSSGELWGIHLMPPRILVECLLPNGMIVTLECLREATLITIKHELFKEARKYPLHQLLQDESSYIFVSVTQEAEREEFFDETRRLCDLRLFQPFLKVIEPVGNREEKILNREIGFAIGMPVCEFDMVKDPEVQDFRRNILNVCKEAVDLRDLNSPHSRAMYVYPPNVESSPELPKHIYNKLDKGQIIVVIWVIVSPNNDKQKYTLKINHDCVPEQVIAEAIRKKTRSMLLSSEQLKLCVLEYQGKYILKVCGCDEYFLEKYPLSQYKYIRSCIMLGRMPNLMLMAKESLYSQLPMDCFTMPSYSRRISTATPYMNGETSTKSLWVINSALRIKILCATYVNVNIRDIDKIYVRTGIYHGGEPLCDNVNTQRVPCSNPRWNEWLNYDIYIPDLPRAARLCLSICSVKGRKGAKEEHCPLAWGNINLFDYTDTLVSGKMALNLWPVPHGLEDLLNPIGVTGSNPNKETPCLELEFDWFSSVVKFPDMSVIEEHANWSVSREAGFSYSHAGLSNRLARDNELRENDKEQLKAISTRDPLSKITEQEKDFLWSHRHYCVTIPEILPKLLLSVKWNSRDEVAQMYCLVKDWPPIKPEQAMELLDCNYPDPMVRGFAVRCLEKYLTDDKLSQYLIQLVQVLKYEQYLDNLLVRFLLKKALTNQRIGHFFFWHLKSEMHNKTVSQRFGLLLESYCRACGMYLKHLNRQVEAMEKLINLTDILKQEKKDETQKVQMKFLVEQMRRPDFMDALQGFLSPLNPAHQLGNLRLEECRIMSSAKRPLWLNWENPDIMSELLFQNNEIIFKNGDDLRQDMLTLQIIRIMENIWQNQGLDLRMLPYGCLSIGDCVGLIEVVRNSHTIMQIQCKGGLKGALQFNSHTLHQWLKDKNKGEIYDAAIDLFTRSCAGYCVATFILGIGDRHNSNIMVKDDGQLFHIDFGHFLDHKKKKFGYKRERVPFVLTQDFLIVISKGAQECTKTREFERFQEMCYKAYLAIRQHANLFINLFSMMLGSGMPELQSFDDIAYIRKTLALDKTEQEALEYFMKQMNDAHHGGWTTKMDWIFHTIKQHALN
Chain of Mitogen-activated protein kinase kinase kinase 1 (Homo sapiens) (Q13233 whole entry): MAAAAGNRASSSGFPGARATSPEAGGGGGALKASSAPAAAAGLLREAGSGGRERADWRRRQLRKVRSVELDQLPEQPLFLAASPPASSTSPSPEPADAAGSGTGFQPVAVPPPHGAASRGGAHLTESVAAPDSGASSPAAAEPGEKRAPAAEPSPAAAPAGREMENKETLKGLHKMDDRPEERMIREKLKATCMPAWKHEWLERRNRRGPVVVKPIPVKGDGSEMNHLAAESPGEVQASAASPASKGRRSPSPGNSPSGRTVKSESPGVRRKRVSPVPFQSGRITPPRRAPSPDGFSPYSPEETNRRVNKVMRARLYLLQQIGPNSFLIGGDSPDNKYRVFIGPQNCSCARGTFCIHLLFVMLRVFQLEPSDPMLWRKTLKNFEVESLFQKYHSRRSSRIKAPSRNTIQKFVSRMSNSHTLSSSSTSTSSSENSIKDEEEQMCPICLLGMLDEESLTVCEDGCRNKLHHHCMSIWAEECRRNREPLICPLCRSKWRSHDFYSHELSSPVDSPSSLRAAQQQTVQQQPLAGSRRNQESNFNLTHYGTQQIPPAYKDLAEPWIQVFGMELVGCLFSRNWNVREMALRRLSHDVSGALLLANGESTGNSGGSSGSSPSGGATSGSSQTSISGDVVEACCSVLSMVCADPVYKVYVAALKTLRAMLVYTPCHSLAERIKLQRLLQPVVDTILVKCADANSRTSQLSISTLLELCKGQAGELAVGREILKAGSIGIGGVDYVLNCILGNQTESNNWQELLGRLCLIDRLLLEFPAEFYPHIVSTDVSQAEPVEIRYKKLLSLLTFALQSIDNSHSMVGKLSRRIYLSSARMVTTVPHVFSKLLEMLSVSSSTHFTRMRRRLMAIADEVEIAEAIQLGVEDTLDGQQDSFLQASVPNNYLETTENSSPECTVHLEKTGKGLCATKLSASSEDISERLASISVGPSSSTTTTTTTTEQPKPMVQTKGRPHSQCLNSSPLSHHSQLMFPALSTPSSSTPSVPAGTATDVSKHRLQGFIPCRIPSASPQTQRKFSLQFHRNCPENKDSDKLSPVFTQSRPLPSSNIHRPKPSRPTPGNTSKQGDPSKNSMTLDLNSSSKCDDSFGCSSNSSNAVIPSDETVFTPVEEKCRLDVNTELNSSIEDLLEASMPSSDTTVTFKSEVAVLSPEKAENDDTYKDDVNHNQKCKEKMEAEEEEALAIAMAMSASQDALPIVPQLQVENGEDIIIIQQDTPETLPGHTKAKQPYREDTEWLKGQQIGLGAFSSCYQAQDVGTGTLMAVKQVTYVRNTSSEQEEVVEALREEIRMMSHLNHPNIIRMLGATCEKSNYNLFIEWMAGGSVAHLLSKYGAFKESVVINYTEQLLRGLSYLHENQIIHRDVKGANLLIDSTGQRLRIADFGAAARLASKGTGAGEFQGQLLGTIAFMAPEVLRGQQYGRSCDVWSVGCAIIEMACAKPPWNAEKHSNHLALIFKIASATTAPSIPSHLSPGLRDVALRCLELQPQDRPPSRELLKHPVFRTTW
Chain of Cyclin-dependent kinase 2 homolog (Plasmodium falciparum (isolate 3D7)) (P61075 whole entry, canonical isoform): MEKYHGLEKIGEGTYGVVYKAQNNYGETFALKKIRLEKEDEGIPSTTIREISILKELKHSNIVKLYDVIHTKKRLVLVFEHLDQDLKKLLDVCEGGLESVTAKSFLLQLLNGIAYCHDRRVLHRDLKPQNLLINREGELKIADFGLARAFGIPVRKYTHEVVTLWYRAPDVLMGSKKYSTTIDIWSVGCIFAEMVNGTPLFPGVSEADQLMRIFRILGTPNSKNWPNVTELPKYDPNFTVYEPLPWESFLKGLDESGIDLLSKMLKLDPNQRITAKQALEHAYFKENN
Chain of Serine/threonine-protein kinase 32A (Homo sapiens) (Q8WU08 whole entry): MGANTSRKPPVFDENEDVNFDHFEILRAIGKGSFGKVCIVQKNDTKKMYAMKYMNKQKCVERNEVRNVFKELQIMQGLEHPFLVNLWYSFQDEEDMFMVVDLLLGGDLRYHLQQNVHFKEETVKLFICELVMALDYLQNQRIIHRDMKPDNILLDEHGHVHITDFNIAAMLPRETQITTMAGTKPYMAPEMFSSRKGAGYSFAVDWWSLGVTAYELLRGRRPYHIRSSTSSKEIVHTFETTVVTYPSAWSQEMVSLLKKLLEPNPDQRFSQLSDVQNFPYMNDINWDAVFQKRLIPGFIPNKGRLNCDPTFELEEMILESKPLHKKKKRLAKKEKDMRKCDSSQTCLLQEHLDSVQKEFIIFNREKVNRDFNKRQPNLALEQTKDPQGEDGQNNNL
Chain of Protein kinase C epsilon type (Homo sapiens) (Q02156 whole entry): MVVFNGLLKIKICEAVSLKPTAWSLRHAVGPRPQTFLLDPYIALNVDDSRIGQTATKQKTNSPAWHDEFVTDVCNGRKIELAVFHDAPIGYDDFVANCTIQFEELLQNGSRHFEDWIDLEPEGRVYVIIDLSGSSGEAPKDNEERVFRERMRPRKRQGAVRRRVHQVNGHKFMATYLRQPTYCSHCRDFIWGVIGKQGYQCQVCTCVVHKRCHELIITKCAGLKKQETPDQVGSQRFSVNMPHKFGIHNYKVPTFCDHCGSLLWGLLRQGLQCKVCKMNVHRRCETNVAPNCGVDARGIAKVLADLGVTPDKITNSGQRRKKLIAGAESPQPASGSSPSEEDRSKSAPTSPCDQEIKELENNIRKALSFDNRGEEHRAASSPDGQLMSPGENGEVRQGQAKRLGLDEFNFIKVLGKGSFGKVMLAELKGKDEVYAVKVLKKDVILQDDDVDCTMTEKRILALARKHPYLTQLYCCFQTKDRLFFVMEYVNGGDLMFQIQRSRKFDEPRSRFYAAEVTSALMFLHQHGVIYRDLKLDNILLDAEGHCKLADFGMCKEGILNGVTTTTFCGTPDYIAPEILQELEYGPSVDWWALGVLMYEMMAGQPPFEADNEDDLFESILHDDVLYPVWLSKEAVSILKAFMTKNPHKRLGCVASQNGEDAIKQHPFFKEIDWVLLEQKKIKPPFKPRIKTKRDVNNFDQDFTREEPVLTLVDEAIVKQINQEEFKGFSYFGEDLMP

N#Cc1ccc(Nc2ccc3[nH]c(=O)[nH]c3c2)c(Cl)c1
inactive: residual activity [1] 100% | residual activity [2] 100% | residual activity [3] 93% | residual activity [4] 100% | residual activity [5] 85% | residual activity [6] 100% | residual activity [7] 100% | residual activity [8] 100% | residual activity [9] 97% | residual activity [10] 100% | residual activity [11] 88% | residual activity [12] 100% | residual activity [13] 100% | residual activity [14] 94% | residual activity [15] 100% | residual activity [16] 98% | residual activity [17] 100% | residual activity [18] 79% | residual activity [19] 77% | residual activity [20] 100% | residual activity [21] 93% | residual activity [22] 100% | residual activity [23] 100% | residual activity [24] 70% | residual activity [25] 100% | residual activity [26] 93% | residual activity [27] 100% | residual activity [28] 100% | residual activity [29] 93% | residual activity [30] 100% | residual activity [31] 100% | residual activity [32] 87% | residual activity [33] 96% | residual activity [34] 100% | residual activity [35] 100% | residual activity [36] 56% | residual activity [37] 100% | residual activity [38] 100% | residual activity [39] 81% | residual activity [40] 92% | residual activity [41] 100% | inhibition [42] 11% | inhibition [43] -7.6% | inhibition [44] -7.86%

O=C1CCc2cc(Nc3cc(OC4CCOCC4)c([N+](=O)[O-])cc3Cl)ccc2N1
inactive: residual activity [1] 100% | residual activity [2] 98% | residual activity [3] 79% | residual activity [4] 100% | residual activity [5] 86% | residual activity [6] 100% | residual activity [7] 97% | residual activity [8] 84% | residual activity [9] 96% | residual activity [10] 95% | residual activity [11] 91% | residual activity [12] 100% | residual activity [13] 100% | residual activity [14] 98% | residual activity [15] 100% | residual activity [16] 91% | residual activity [17] 99% | residual activity [18] 65% | residual activity [19] 100% | residual activity [20] 100% | residual activity [21] 100% | residual activity [22] 100% | residual activity [23] 100% | residual activity [24] 71% | residual activity [25] 94% | residual activity [26] 70% | residual activity [27] 79% | residual activity [28] 93% | residual activity [29] 100% | residual activity [30] 100% | residual activity [31] 100% | residual activity [32] 100% | residual activity [33] 100% | residual activity [34] 82% | residual activity [35] 81% | residual activity [36] 87% | residual activity [37] 100% | residual activity [38] 100% | residual activity [39] 90% | residual activity [40] 88% | residual activity [41] 100% | inhibition [42] 3.31% | inhibition [43] 6.14% | inhibition [44] 7.4%

— ChEMBL document CHEMBL4507304, “Data for DCP probe TP-021” (2021)
